Measured values from publication PMC11477000, “Enantioselective Binding of Proton Pump Inhibitors to Alpha1-Acid Glycoprotein and Human Serum Albumin—A Chromatographic, Spectroscopic, and In Silico Study” (International Journal of Molecular Sciences, 2024).
Each block holds one compound with its values, some of them ahead of it.

Legend:
[1] = molecular target: T1, human serum albumin (HSA) (Homo sapiens, UniProt P02768); test: HPLC on HSA-based chiral stationary phase (Daicel Chiralpak HSA column); type: binding; details: for EEO enantiomer elution order / Rs resolution / k1 retention factor (first-eluting enantiomer) / k2 retention factor (second-eluting enantiomer): HSA column, 25 °C
T1 sequence (P02768 25-609): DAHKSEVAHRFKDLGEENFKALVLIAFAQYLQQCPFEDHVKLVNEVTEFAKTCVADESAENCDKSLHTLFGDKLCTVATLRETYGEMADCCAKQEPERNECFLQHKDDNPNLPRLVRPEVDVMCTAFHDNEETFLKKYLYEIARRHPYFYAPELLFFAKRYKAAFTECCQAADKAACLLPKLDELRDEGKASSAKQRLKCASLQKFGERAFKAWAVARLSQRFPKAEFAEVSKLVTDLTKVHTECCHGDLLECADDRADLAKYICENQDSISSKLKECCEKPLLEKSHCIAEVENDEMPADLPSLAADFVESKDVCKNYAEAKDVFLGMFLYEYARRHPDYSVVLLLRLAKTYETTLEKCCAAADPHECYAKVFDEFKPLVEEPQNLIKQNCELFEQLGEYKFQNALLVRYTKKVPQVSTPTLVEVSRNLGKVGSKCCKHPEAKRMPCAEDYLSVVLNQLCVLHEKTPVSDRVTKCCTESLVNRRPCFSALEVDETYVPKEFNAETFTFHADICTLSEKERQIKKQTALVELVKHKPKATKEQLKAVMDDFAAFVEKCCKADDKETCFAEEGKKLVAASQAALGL
Method: (§1) HPLC using a protein-based chiral stationary phase is a fully automated method for obtaining rapid information about the binding of compounds to the respective proteins. Enantioseparation occurs in the case of unequal binding constants of the individual enantiomers to the immobilized proteins, thus allowing enantioselective binding to be characterized even when a racemic mixture was injected. As a preliminary step, the enantiospecific binding was investigated on columns containing AGP and HSA in various alcohol:buffer mixtures. A pH 7 phosphate buffer was employed as the aqueous part of the mobile phase, while for the organic part, three different alcohols were evaluated.
In the following step, we investigated the effect of changing some other chromatographic conditions on the protein binding. The pH of the aqueous phase influenced the protonation state of both the analyte and the proteins. It should be noted that the pH tolerance of protein-based columns is narrow due to the possible denaturation of proteins. Taking into account the guidelines of the manufacturer, three different pH values were investigated (pH 6, 6.5, and 7) at a 95:5 (v/v%) buffer:IPA eluents ratio [49]. The buffer was uniformly 10 mM phosphate. […] The effect of different buffer constituents was also evaluated. In addition to phosphate buffer, ammonium acetate, ammonium bicarbonate, and sodium citrate were tested and compared under the same conditions.
(§2) Chromatographic measurements were carried out on two separate HPLC systems. The AGP binding study was performed on a Waters 2695e chromatographic system paired with a Waters 2996 PDA detector, controlled by Empower 3 FR5 (Waters Corp., Milford, MA, USA), while the HSA binding study was performed on an Agilent 1100 HPLC system, consisting of an inline degasser (G1322A), a quaternary pump (G1311A), an automatic injector (G1329A) paired with sample thermostat (G1330A), a column thermostat (G1316A), and a diode array detector (G1315A) with Agilent Chemstation B04.03-SP2 software (Agilent, Bronnwald, Germany). For the binding studies, two protein-based chiral stationary phases were utilized. The chromatographic binding study for AGP was conducted on a ChromTech Chiral-AGP column (150 mm × 4.0 mm; ChromTech Ltd., Congleton, UK), while the binding study for HSA was performed on a Daicel Chiralpak HSA column (50 mm × 4.0 mm; Daicel Corp., Osaka, Japan). The detection wavelength was 210 nm for all measurements. The stock solutions of PPIs were prepared at a concentration of 1 mg/mL in MeOH. Subsequent dilutions were prepared using water. The injected samples were mixed and diluted from the stock solutions. The final concentration for the eutomer was 0.2 mg/mL, and for the distomer, it was 0.1 mg/mL. A volume of 2 μL was injected. To mitigate the instability of PPIs in aqueous solutions, the samples were kept at a temperature of 4 °C.

[2] = tested on: α1-acid glycoprotein (AGP); test: HPLC on AGP-based chiral stationary phase (ChromTech Chiral-AGP column); type: binding, human; details: 10 mM pH 7 phosphate buffer, 25 °C
Method: as §1, with “evaluated. […]” for “evaluated.”
as §2

[3] = molecular target: T1, human serum albumin (HSA); test: Displacement chromatography on HSA column with warfarin and ibuprofen as competitors; type: binding; details: IPA:10 mM pH 7 phosphate buffer 1:99, 25 °C
Method: For identification of the binding site of HSA, a displacement chromatography and fluorescence displacement study were performed. In the case of chromatography, to the mobile phase, increasing concentrations of the competitors, warfarin and ibuprofen, that are known to bind to specific binding sites on HSA, Sudlow site I and Sudlow site II, respectively, were added. In the case of the fluorescence displacement study, the fluorescence quenching data of the PPI-HSA system in the presence of warfarin and ibuprofen were investigated.
(Chromatographic parameter: Column temperature: 25 °C,
mobile phase: IPA : 10 mM pH 7 sodium phosphate buffer 1:99, flow rate: 0.7 mL/min, detection

[4] = 1% EtOH, 10 mM pH 7 phosphate buffer
[5] = 1% IPA, 10 mM pH 7 phosphate buffer
[6] = 1% MeOH, 10 mM pH 7 phosphate buffer
[7] = 2.5% EtOH, 10 mM pH 7 phosphate buffer
[8] = 2.5% IPA, 10 mM pH 7 phosphate buffer
[9] = 2.5% MeOH, 10 mM pH 7 phosphate buffer
[10] = 5% EtOH, 10 mM pH 7 phosphate buffer
[11] = 5% IPA, 10 mM pH 7 phosphate buffer
[12] = 5% MeOH, 10 mM pH 7 phosphate buffer
[13] = 7.5% EtOH, 10 mM pH 7 phosphate buffer
[14] = 7.5% IPA, 10 mM pH 7 phosphate buffer
[15] = 7.5% MeOH, 10 mM pH 7 phosphate buffer
[16] = 10% EtOH, 10 mM pH 7 phosphate buffer
[17] = 10% IPA, 10 mM pH 7 phosphate buffer
[18] = 10% MeOH, 10 mM pH 7 phosphate buffer
[19] = 12.5% IPA, 10 mM pH 7 phosphate buffer

EEO enantiomer elution order [1, 4]: R < S
Rs resolution [1, 4]: 1.0
k1 retention factor (first-eluting enantiomer) [1, 4]: 10.13
k2 retention factor (second-eluting enantiomer) [1, 4]: 14.32
EEO enantiomer elution order [1, 5]: R < S
Rs resolution [1, 5]: 1.8
k1 retention factor (first-eluting enantiomer) [1, 5]: 11.17
k2 retention factor (second-eluting enantiomer) [1, 5]: 18.27
EEO enantiomer elution order [1, 6]: R < S
Rs resolution [1, 6]: 1.0
k1 retention factor (first-eluting enantiomer) [1, 6]: 10.66
k2 retention factor (second-eluting enantiomer) [1, 6]: 15.61
EEO enantiomer elution order [1, 7]: R < S
Rs resolution [1, 7]: 0.3
k1 retention factor (first-eluting enantiomer) [1, 7]: 6.92
k2 retention factor (second-eluting enantiomer) [1, 7]: 8.39
EEO enantiomer elution order [1, 8]: R < S
Rs resolution [1, 8]: 1.0
k1 retention factor (first-eluting enantiomer) [1, 8]: 9.26
k2 retention factor (second-eluting enantiomer) [1, 8]: 12.87
EEO enantiomer elution order [1, 9]: R < S
Rs resolution [1, 9]: 0.8
k1 retention factor (first-eluting enantiomer) [1, 9]: 7.92
k2 retention factor (second-eluting enantiomer) [1, 9]: 10.16
k1 retention factor (first-eluting enantiomer) [1, 10]: 5.26
k2 retention factor (second-eluting enantiomer) [1, 10]: 5.26
EEO enantiomer elution order [1, 11]: R < S
Rs resolution [1, 11]: 0.2
k1 retention factor (first-eluting enantiomer) [1, 11]: 5.79
k2 retention factor (second-eluting enantiomer) [1, 11]: 6.63
EEO enantiomer elution order [1, 12]: R < S
Rs resolution [1, 12]: 0.2
k1 retention factor (first-eluting enantiomer) [1, 12]: 6.05
k2 retention factor (second-eluting enantiomer) [1, 12]: 7.29
k1 retention factor (first-eluting enantiomer) [1, 13]: 4.11
k2 retention factor (second-eluting enantiomer) [1, 13]: 4.11
k1 retention factor (first-eluting enantiomer) [1, 14]: 4.37
k2 retention factor (second-eluting enantiomer) [1, 14]: 4.37
k1 retention factor (first-eluting enantiomer) [1, 15]: 4.92
k2 retention factor (second-eluting enantiomer) [1, 15]: 4.92
k1 retention factor (first-eluting enantiomer) [1, 16]: 3.24
k2 retention factor (second-eluting enantiomer) [1, 16]: 3.24
k1 retention factor (first-eluting enantiomer) [1, 17]: 3.45
k2 retention factor (second-eluting enantiomer) [1, 17]: 3.45
k1 retention factor (first-eluting enantiomer) [1, 18]: 4.03
k2 retention factor (second-eluting enantiomer) [1, 18]: 4.03
k1 retention factor (first-eluting enantiomer) [1, 19]: 2.71
k2 retention factor (second-eluting enantiomer) [1, 19]: 2.71
Rs resolution ([1]; acetate buffer, 1% 2-propanol): 1.8
Rs resolution ([1]; bicarbonate buffer, 1% 2-propanol): 1.2
Rs resolution ([1]; citrate buffer, 1% 2-propanol): 1.9
Rs resolution ([1]; phosphate buffer, 1% 2-propanol): 1.8
SMILES: Cc1c(OCC(F)(F)F)ccnc1C[S+]([O-])c1nc2ccccc2[nH]1 (stereo not shown) [Lansoprazole, lansoprazole]
k1 retention factor (first-eluting enantiomer) ([2]; 2.5% IPA): 15.75
k2 retention factor (second-eluting enantiomer) ([2]; 2.5% IPA): 19.61
k1 retention factor (first-eluting enantiomer) ([2]; 5% EtOH): 14.52
k2 retention factor (second-eluting enantiomer) ([2]; 5% EtOH): 18.43
k1 retention factor (first-eluting enantiomer) ([2]; 5% IPA): 6.88
k2 retention factor (second-eluting enantiomer) ([2]; 5% IPA): 9.12
k1 retention factor (first-eluting enantiomer) ([2]; 5% MeOH): 22.63
k2 retention factor (second-eluting enantiomer) ([2]; 5% MeOH): 28.55
k1 retention factor (first-eluting enantiomer) ([2]; 7.5% EtOH): 8.24
k2 retention factor (second-eluting enantiomer) ([2]; 7.5% EtOH): 10.64
k1 retention factor (first-eluting enantiomer) ([2]; 7.5% IPA): 4.00
k2 retention factor (second-eluting enantiomer) ([2]; 7.5% IPA): 5.28
k1 retention factor (first-eluting enantiomer) ([2]; 7.5% MeOH): 14.63
k2 retention factor (second-eluting enantiomer) ([2]; 7.5% MeOH): 18.79
k1 retention factor (first-eluting enantiomer) ([2]; 10% EtOH): 5.13
k2 retention factor (second-eluting enantiomer) ([2]; 10% EtOH): 6.62
k1 retention factor (first-eluting enantiomer) ([2]; 10% IPA): 2.67
k2 retention factor (second-eluting enantiomer) ([2]; 10% IPA): 3.47
k1 retention factor (first-eluting enantiomer) ([2]; 10% MeOH): 9.96
k2 retention factor (second-eluting enantiomer) ([2]; 10% MeOH): 12.56
k1 retention factor (first-eluting enantiomer) ([2]; 12.5% IPA): 1.95
k2 retention factor (second-eluting enantiomer) ([2]; 12.5% IPA): 2.47
k1 retention factor (first-eluting enantiomer) ([2]; 15% EtOH): 2.54
k2 retention factor (second-eluting enantiomer) ([2]; 15% EtOH): 3.21
k1 retention factor (first-eluting enantiomer) ([2]; 15% IPA): 1.48
k2 retention factor (second-eluting enantiomer) ([2]; 15% IPA): 1.83
k1 retention factor (first-eluting enantiomer) ([2]; 15% MeOH): 7.02
k2 retention factor (second-eluting enantiomer) ([2]; 15% MeOH): 8.75

SMILES: Cc1c(OCC(F)(F)F)ccnc1C[S@@+]([O-])c1nc2ccccc2[nH]1 [R-lansoprazole, dexlansoprazole]
k retention factor ([3]; ibuprofen 0 mM): 18.27
k retention factor ([3]; ibuprofen 0.01 mM): 13.98
k retention factor ([3]; ibuprofen 0.05 mM): 10.41
k retention factor ([3]; ibuprofen 0.1 mM): 7.60
k retention factor ([3]; warfarin 0 mM): 18.27
k retention factor ([3]; warfarin 0.01 mM): 14.84
k retention factor ([3]; warfarin 0.05 mM): 12.07
k retention factor ([3]; warfarin 0.1 mM): 10.51

SMILES: Cc1c(OCC(F)(F)F)ccnc1C[S@+]([O-])c1nc2ccccc2[nH]1 [S-lansoprazole]
Affinity to HSA compared to the antipode ([1]; based on the elution order of enantiomers on the HSA column): higher affinity
k retention factor ([3]; ibuprofen 0 mM): 11.17
k retention factor ([3]; ibuprofen 0.01 mM): 9.81
k retention factor ([3]; ibuprofen 0.05 mM): 8.51
k retention factor ([3]; ibuprofen 0.1 mM): 7.60
k retention factor ([3]; warfarin 0 mM): 11.17
k retention factor ([3]; warfarin 0.01 mM): 9.03
k retention factor ([3]; warfarin 0.05 mM): 8.13
k retention factor ([3]; warfarin 0.1 mM): 7.44
